Data taken from patent publication US6069160A, “Heteroatom-containing benzocyclopentane-oxazolidinones” (Bayer Aktiengesellschaft, priority 1995, dated 2000).
In brackets after ≈: the same amount, converted by molar mass. Like-named read-outs stand apart in the source and are kept apart here.

Columns and labels:
Assay type in all cases: cell-based
Klebs. 57 USA = assay: MIC by series dilution method; conditions: 37° C., about 20 hours
Protocol: (§1) The minimum inhibitory concentration (MIC) were determined by a series dilution method on Iso-Sensitest agar (Oxoid). For each test substance, a series of agar plates each comprising concentrations of the active compound decreasing by double dilution in each case was prepared. The agar plates were inoculated with a multipoint inoculator (Denley). Overnight cultures of the pathogens which had been diluted beforehand such that each inoculation point comprised about 10^4 colony-forming particles were used for the inoculation. The inoculated agar plates were incubated at 37° C. and the germ growth was read off after about 20 hours. The MIC value (μg/ml) indicates the lowest active compound concentration at which no growth was detectable with the naked eye.

E. coli Neumann = assay: MIC by series dilution method; conditions: Escherichia coli
Protocol: as §1

Psdm. Bonn = assay: MIC by series dilution method; conditions: 37° C., about 20 hours
Protocol: as §1

Staph. 9TV = assay: MIC by series dilution method
Protocol: as §1, with “eye. […]” for “eye.”

Staph. 133 = assay: MIC by series dilution method
Protocol: as §1, with “eye. […]” for “eye.”

Staph. 48N = assay: MIC by series dilution method
Protocol: as §1, with “eye. […]” for “eye.”

Staph. 25701 = assay: MIC by series dilution method
Protocol: as §1, with “eye. […]” for “eye.”

[1] = system: Mycobacterium smegmacis DSM 43061; assay: MIC in microtiter plates (Mycobacterium); conditions: DSM43061, 37° C., 3 to 5 days
Protocol: (§2) The microtiter plates were incubated at 37° C. and read off after about 20 hours (Staph) or after 3 to 5 days (Mycobacterium). The MIC value (μg/ml) indicates the lowest concentration of active substance at which no growth was detectable.

[2] = system: Mycobacterium smegmacis DSM 43299; assay: MIC in microtiter plates (Mycobacterium); conditions: DSM43299, 37° C., 3 to 5 days
Protocol: as §2

[3] = system: Mycobacterium smegmacis DSM 43078; assay: MIC in microtiter plates (Mycobacterium); conditions: DSM43078, 37° C., 3 to 5 days
Protocol: as §2

[4] = system: Mycobacterium smegmacis DSM 43465; assay: MIC in microtiter plates (Mycobacterium); conditions: DSM43465, 37° C., 3 to 5 days
Protocol: as §2

[5] = system: Mycobacterium smegmacis DSM 43277; assay: MIC in microtiter plates (Mycobacterium); conditions: DSM43277, 37° C., 3 to 5 days
Protocol: as §2

[6] = system: Mycobacterium smegmacis DSM 43464; assay: MIC in microtiter plates (Mycobacterium); conditions: DSM43464, 37° C., 3 to 5 days
Protocol: as §2

[7] = Staph. 9TV, 37° C., about 20 hours, read-out: MIC
[8] = Staph. 133, 37° C., about 20 hours, read-out: MIC
[9] = Staph. 48N, 37° C., about 20 hours, read-out: MIC
[10] = Staph. 25701, 37° C., about 20 hours, read-out: MIC
[11] = E. coli Neumann, 37° C., about 20 hours, read-out: MIC

| Structure (SMILES) | MIC (Klebs. 57 USA) [µg/mL] | MIC (E. coli Neumann; 20 h) [µg/mL] | MIC (Psdm. Bonn) [µg/mL] | MIC (Staph. 9TV; 20 h) [µg/mL] | MIC (Staph. 133; 20 h) [µg/mL] | MIC (Staph. 48N; 20 h) [µg/mL] | MIC (Staph. 25701; 20 h) [µg/mL] | MIC (Staph. 9TV; [7]) [µg/mL] | MIC (Staph. 133; [8]) [µg/mL] | MIC (Staph. 48N; [9]) [µg/mL] | MIC (Staph. 25701; [10]) [µg/mL] | MIC [1] [µg/mL] | MIC [2] [µg/mL] | MIC [3] [µg/mL] | MIC [4] [µg/mL] | MIC [5] [µg/mL] | MIC [6] [µg/mL] | MIC (E. coli Neumann; [11]) [µg/mL] |
| --- | --- | --- | --- | --- | --- | --- | --- | --- | --- | --- | --- | --- | --- | --- | --- | --- | --- | --- |
| COP(=O)(NC[C@H]1CN(c2ccc3c(c2)sc(=O)n3C)C(=O)O1)OC [Example 17] | > 64 | > 64 | > 64 | 8 (≈ 20.7 µM) | 8 (≈ 20.7 µM) | 8 (≈ 20.7 µM) | 8 (≈ 20.7 µM) |  |  |  |  |  |  |  |  |  |  |  |
| CC(=O)NC[C@H]1CN(c2ccc3c(c2)sc(=O)n3C)C(=O)O1 [Example 18] | > 64 | > 64 | > 64 |  |  |  |  | 0.06 (≈ 0.187 µM) | 0.25 (≈ 0.778 µM) | 0.25 (≈ 0.778 µM) | 0.25 (≈ 0.778 µM) | 0.25 (≈ 0.778 µM) | 1 (≈ 3.11 µM) | 0.25 (≈ 0.778 µM) | 0.5 (≈ 1.56 µM) | 0.25 (≈ 0.778 µM) | 1 (≈ 3.11 µM) |  |
| CCn1c(=O)sc2cc(N3C[C@H](CNC(C)=O)OC3=O)ccc21 [Example 22] | > 64 | > 64 | > 64 |  |  |  |  | 0.5 (≈ 1.49 µM) | 1 (≈ 2.98 µM) | 1 (≈ 2.98 µM) | 1 (≈ 2.98 µM) |  |  |  |  |  |  |  |
| CC(=O)NC[C@H]1CN(c2ccc3[nH]c(=O)oc3c2)C(=O)O1 [Example 24] | > 64 | > 64 | > 64 |  | 8 (≈ 27.5 µM) |  |  | 16 (≈ 54.9 µM) |  | 16 (≈ 54.9 µM) | 16 (≈ 54.9 µM) |  |  |  |  |  |  |  |
| CC(=O)NC[C@H]1CN(c2ccc3c(c2)oc(=O)n3C)C(=O)O1 [Example 37] | 64 (≈ 210 µM) |  | 64 (≈ 210 µM) |  |  |  |  | 0.5 (≈ 1.64 µM) | 1 (≈ 3.28 µM) | 1 (≈ 3.28 µM) | 1 (≈ 3.28 µM) |  |  |  |  |  |  | 16 (≈ 52.4 µM) |
| CC(=O)NC[C@H]1CN(c2ccc3c(c2)oc(=O)n3Cc2ccccc2)C(=O)O1 [Example 38] | > 64 | > 64 | > 64 |  |  |  |  | 1 (≈ 2.62 µM) | 4 (≈ 10.5 µM) | 4 (≈ 10.5 µM) | 4 (≈ 10.5 µM) |  |  |  |  |  |  |  |
| CCOC(=O)Cn1c(=O)oc2cc(N3C[C@H](CNC(C)=O)OC3=O)ccc21 [Example 39] | > 64 | > 64 | > 64 |  |  |  |  | 4 (≈ 10.6 µM) | 4 (≈ 10.6 µM) | 4 (≈ 10.6 µM) | 4 (≈ 10.6 µM) |  |  |  |  |  |  |  |
| CC(=O)NC[C@H]1CN(c2ccc3c(c2)oc(=S)n3C)C(=O)O1 [Example 43] | > 64 |  | > 64 |  |  |  |  | 0.125 (≈ 0.389 µM) | 0.25 (≈ 0.778 µM) | 0.125 (≈ 0.389 µM) | 0.25 (≈ 0.778 µM) |  |  |  |  |  |  | > 32 |
| CCn1c(=S)sc2cc(N3C[C@H](CNC(C)=O)OC3=O)ccc21 [Example 44] | > 64 | > 64 | > 64 |  |  |  |  | 0.5 (≈ 1.42 µM) | 0.5 (≈ 1.42 µM) | 0.5 (≈ 1.42 µM) | 0.5 (≈ 1.42 µM) |  |  |  |  |  |  |  |
| CC(=O)NC[C@H]1CN(c2ccc3c(c2)oc(=O)n3C(C)C)C(=O)O1 [Example 47] | 64 (≈ 192 µM) |  | > 64 |  |  |  |  | 0.25 (≈ 0.75 µM) | 0.5 (≈ 1.5 µM) | 0.5 (≈ 1.5 µM) | 0.5 (≈ 1.5 µM) |  |  |  |  |  |  | 32 (≈ 96 µM) |
| Cn1c(=O)sc2cc(N3C[C@H](CNC(=O)C4CC4)OC3=O)ccc21 [Example 54] |  |  |  |  |  |  |  |  |  |  |  | 4 (≈ 11.5 µM) | 4 (≈ 11.5 µM) | 1 (≈ 2.88 µM) | 4 (≈ 11.5 µM) | 2 (≈ 5.76 µM) | 16 (≈ 46.1 µM) |  |
| CCC(=O)NC[C@H]1CN(c2ccc3c(c2)sc(=O)n3C)C(=O)O1 [Example 56] | > 64 | 64 (≈ 191 µM) | > 64 |  |  |  |  | 0.25 (≈ 0.745 µM) | 0.5 (≈ 1.49 µM) | 0.5 (≈ 1.49 µM) | 0.5 (≈ 1.49 µM) | 1 (≈ 2.98 µM) | 1 (≈ 2.98 µM) | 1 (≈ 2.98 µM) | 0.5 (≈ 1.49 µM) | 0.25 (≈ 0.745 µM) | 4 (≈ 11.9 µM) |  |
| Cn1c(=O)sc2cc(N3C[C@H](CNC(=O)C4CCC4)OC3=O)ccc21 [Example 62] | > 64 | > 64 | > 64 |  |  |  |  | 0.5 (≈ 1.38 µM) | 1 (≈ 2.77 µM) | 1 (≈ 2.77 µM) | 1 (≈ 2.77 µM) |  |  |  |  |  |  |  |
| COC(=O)NC[C@H]1CN(c2ccc3c(c2)sc(=O)n3C)C(=O)O1 [Example 70] | > 64 | > 64 | > 64 |  |  |  |  | 0.5 (≈ 1.48 µM) | 0.5 (≈ 1.48 µM) | 0.5 (≈ 1.48 µM) | 0.5 (≈ 1.48 µM) | 0.25 (≈ 0.741 µM) | 2 (≈ 5.93 µM) | 0.125 (≈ 0.371 µM) | 1 (≈ 2.96 µM) | 0.5 (≈ 1.48 µM) | 8 (≈ 23.7 µM) |  |
| CCCCCn1c(=O)oc2cc(N3C[C@H](CNC(C)=O)OC3=O)ccc21 [Example 84] | > 64 | 64 (≈ 177 µM) | > 64 |  |  |  |  | 0.5 (≈ 1.38 µM) | 1 (≈ 2.77 µM) | 1 (≈ 2.77 µM) | 1 (≈ 2.77 µM) |  |  |  |  |  |  |  |
| CC(=O)NC[C@H]1CN(c2ccc3c(c2)oc(=NC(=O)C2CC2)n3C)C(=O)O1 [Example 94] | > 64 | 64 (≈ 172 µM) | > 64 |  |  |  |  | 0.25 (≈ 0.671 µM) | 0.5 (≈ 1.34 µM) | 0.5 (≈ 1.34 µM) | 0.5 (≈ 1.34 µM) |  |  |  |  |  |  |  |
